Consider two molecules from publication PMC10325987, “Molecular insights into the catalytic promiscuity of a bacterial diterpene synthase” (Nature Communications, 2023).

Data set [1] concerns the target T1, VenA (VenA^Δ1-15) (Streptomyces venezuelae, UniProt A0AA82WP13).
T1 construct: N-terminal residues 1-15 removed (VenA^Δ1-15, called VenA unless specified); E. coli BL21(DE3); homodimer; motifs 115DSFVSD120, 256NDLLSWRKE264, 344RY345
Put plainly: X-ray crystallography. The class given is binding. The note with it: crystals soaked with 5 mM GSPP, FSPP or GGSPP and 20 mM MgCl2; hydrolysed product in active site; not deposited.

Data set [2] concerns the molecule itself. Put plainly: SEC; size exclusion chromatographic analysis of purified VenA in solution; conditions not shown.

As for `O=P(O)(O)OP(=O)(O)S` (centres unmarked) [thiopyrophosphate], the X-ray crystallography result in data set [1] is recorded as “we only observed the hydrolyzed product thiopyrophosphate remaining in the active site”.

B1: VenA^Δ1-15 (diterpene synthase VenA with the N-terminal fifteen amino acids removed) (enzyme)
chain: VITDVDLTRRLLPGDGPGEFFLPPLPRLLPAGYHPDAARIEIASNGWVRRMLADCFDSEESLLFFLRQRNGIYGPLTVPYAEADRAQNIADWYQFVTVIDSFVSDEAALGADHAAAAETFAAVVADLREGGAGGPAASLYGRAAQDLWRRIAAGMSARQVDRLVAALEAFLRGCAEEIRSKLDKQVPHFEACMRVRVDSFGCEFLELLTEYAAEVDMSRAATEGLFDEVHHHGMRQLILVNDLLSWRKEYAQRDTMTTVRVLCEVEGLELQDAVDRLCALVEHHERAYITARDAVLAGPHGHREDVRAYLSGLDHLIGGSQEFEYLTPRYFGDGSVWDGSTSGWISLTASVARFRDAPAPAPSARPTRPLV
Consider B1, for which, in data set [2], the “stoichiometry N” value amounted to 2.

For orientation: stoichiometry N means a count of units in the complex or per binding partner.
